Laboratory results reported in PubChem BioAssay (NCI).
Where “and” joins values, the source holds several entries; their conditions need not be identical. Identical values can stand only once.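 Assay format: 96-well plates, 48-hour exposure. GI50 marks 50% less growth. The concentration for full growth arrest is given as TGI.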

Legend:
Experiment in all cases: NCI anticancer screen, dose series, 48 h
UACC-257 melanoma = test system: UACC-257 melanoma
DU-145 prostate = test system: DU-145 prostate
K-562 leukemia = test system: K-562 leukemia
COLO 205 colon = test system: COLO 205 colon
MCF7 breast = test system: MCF7 breast
OVCAR-8 ovarian = test system: OVCAR-8 ovarian
RXF 393 renal = test system: RXF 393 renal
SF-539 CNS = test system: SF-539 CNS
A549 NSCLC = test system: A549 NSCLC
NCI-H460 lung = test system: NCI-H460 lung

Row | Structure (SMILES) | GI50 (UACC-257 melanoma) [µM] | TGI (UACC-257 melanoma) | GI50 (DU-145 prostate) [µM] | TGI (DU-145 prostate) | GI50 (K-562 leukemia) | TGI (K-562 leukemia) | GI50 (COLO 205 colon) [µM] | TGI (COLO 205 colon) | GI50 (MCF7 breast) [µM] | TGI (MCF7 breast) | GI50 (OVCAR-8 ovarian) | TGI (OVCAR-8 ovarian) | GI50 (RXF 393 renal) | TGI (RXF 393 renal) | GI50 (SF-539 CNS) | TGI (SF-539 CNS) | GI50 (A549 NSCLC) | TGI (A549 NSCLC) | GI50 (NCI-H460 lung) | TGI (NCI-H460 lung)
1 | C=C1C[C@@H]2O[C@H]3[C@H]4[C@@H](CC[C@@](C)(OC(=O)CCC)[C@H]42)[C@@H](C)C(=O)O[C@@]3(C)CC[C@H]1OO | 26.2 | 76.7 µM | 18 | 32.8 µM | 1.79 µM | 3.28 µM | 21.3 | 37.4 µM | 20.5 | 38.8 µM | 22.6 µM | 51.6 µM | 27.6 µM | 88.6 µM | 21 µM | 41.1 µM | 18.5 µM | 34.4 µM | 19.3 µM | 35.8 µM
2 | CNC(=O)OCc1nc(SC)n(C)c1COC(=O)NC |  | 335 µM |  | 379 µM |  | 508 µM |  | 295 µM |  | 622 µM |  | 472 µM |  | 169 µM |  | 299 µM |  | 836 µM |  | 264 µM
3 | O=c1[nH]cnc2n[nH]nc12 |  | > 100 µM | 2.89 | > 100 µM |  | > 100 µM |  | > 100 µM | 24 | > 100 µM |  | > 100 µM |  | 14.4 µM |  | 23.9 µM |  | > 100 µM |  | > 69.7 µM
4 | COc1cc2c3cc1Oc1c(OC)c(OC)cc4c1C(Cc1ccc(O)c(c1)Oc1ccc(cc1)CC3N(C)CC2)N(C)CC4 (stereo not drawn) | 5.99 | > 100 µM and 18.9 µM | 18.2 | > 100 µM and 84.4 µM | 2.04 µM | > 100 µM and 12.9 µM | 14.3 | > 100 µM and 30.4 µM | 11.5 | > 100 µM and 66.8 µM | 21.4 µM | > 100 µM | 2.18 µM | 14.8 µM | 2.16 µM |  | 14.4 µM | 81.7 µM and 48.8 µM |  | 32.4 µM and 38.8 µM
5 | COc1cc2cc(Oc3cccc(NC(=O)Nc4cc(C(F)(F)F)cc(C(F)(F)F)c4)c3)c(C)nc2cc1OC | 2.48 | 5.49 µM | 2.38 | 9.36 µM | 0.573 µM | 2.53 µM | 1.79 | 3.58 µM | 0.544 | 2.36 µM | 1.63 µM | 4.22 µM | 2.06 µM | 4.79 µM | 1.45 µM | 3.21 µM | 1.42 µM | 4.75 µM | 0.96 µM | 2.72 µM
6 | OCCN(CO)CO |  | > 100 µM |  | > 100 µM |  | > 100 µM |  | > 100 µM |  | > 100 µM |  | > 100 µM |  | > 100 µM |  | > 100 µM |  | > 100 µM |  | > 100 µM
7 | Cn1c(=O)c2c(nc(N/N=C/c3ccccc3C(=O)O)n2C)n(C)c1=O |  | > 100 µM |  | > 100 µM |  | > 100 µM |  | > 100 µM |  | > 100 µM |  | > 100 µM |  | > 100 µM |  | > 100 µM |  | > 100 µM |  | > 100 µM
8 | Nn1c(-c2ccc(Cl)cc2)nc2c(-c3ccc(Cl)cc3)nc3ccc(Cl)cc3c2c1=O | 25.2 | > 100 µM | 4.96 | > 100 µM | 11.4 µM | 48.5 µM | 19.5 | > 100 µM | 4.1 | > 100 µM | 7.58 µM | 95.2 µM | 11.8 µM | 30.9 µM | 10.4 µM | 36.8 µM | 4.8 µM | > 100 µM | 3.36 µM | > 100 µM
9 | O=C1Nc2ccc3c(c2/C1=C\c1cc2c(cc1Br)OCO2)OCO3 | 0.685 |  | 0.49 | 2.11 µM | 0.179 µM | > 35.9 µM | 0.356 | 2.66 µM | 0.351 | 2.87 µM | 0.855 µM | 4.87 µM | 0.901 µM | 3.78 µM | 0.311 µM | 1.12 µM | 0.731 µM | 2.49 µM | 0.35 µM | 1.35 µM
10 | COc1ccc(-c2cc(/C=C/C(=O)c3ccc(N)cc3)[nH]n2)cc1 | 1.9 | 4.21 µM | 1.32 | 3.46 µM | 1.42 µM | 11.6 µM | 1.85 | 3.45 µM | 0.708 | 3.84 µM | 2.44 µM | 15.4 µM | 1.67 µM | 4.19 µM | 1.47 µM | 3.48 µM | 2.55 µM | 10.2 µM | 2.07 µM | 4.95 µM
11 | CC[C@H]1OC(=O)[C@H](C)[C@@H](O[C@H]2C[C@@](C)(OC)[C@@H](O)[C@H](C)O2)[C@H](C)[C@@H](O[C@@H]2O[C@H](C)C[C@H](N(C)C)[C@H]2O)[C@](C)(OC)C/C(C)=C2/O[C@@]1(C)C=C2C | 1.83 | 3.62 µM | 1.82 | 3.39 µM | 1.56 µM | 4.8 µM | 1.68 | 3.69 µM | 1.82 | 3.63 µM | 2.2 µM | 5.75 µM | 2.09 µM | 3.75 µM | 1.62 µM | 2.99 µM | 1.63 µM | 3.42 µM | 1.81 µM | 3.35 µM
12 | COc1ccc(C(O)c2cc3c(N)c(C(=O)Nc4cccc(Br)c4C)sc3nc2C)cc1 (stereo not drawn) | 0.307 | > 33.3 µM | 0.135 | 4.54 µM | 0.14 µM | > 33.3 µM | 1.04 | > 11 µM | 0.116 | > 33.3 µM | 0.225 µM | > 23 µM | 0.0944 µM | 2.22 µM | 0.131 µM | 2.88 µM | 0.221 µM | > 16.8 µM | 0.121 µM | 1.65 µM
13 | NCCCN=c1ccc2c3c1c(O)c1c(O)ccc(=O)c1c3[nH]n2CCNCCO | 4.32 | 14.1 µM and 105 µM | 1 | 5.57 µM and 8.3 µM | 1.61 µM and 1.64 µM | 24.2 µM and 27.2 µM | 1.61 | 5.91 µM and 6.96 µM | 0.796 | 21.5 µM and 11.2 µM | 3.34 µM and 1.15 µM | 15.7 µM and 20 µM | 3.03 µM and 1.21 µM | 8.38 µM and 5.39 µM | 0.854 µM and 1.53 µM | 5.31 µM and 7.66 µM | 0.571 µM and 0.304 µM | 12.3 µM and 21.8 µM | 0.117 µM and 0.12 µM | 3.66 µM and 15.7 µM
14 | CSC1=Nc2c(c(C)c(-c3ccccc3)n2COC(CO)CO)C2=NC(=O)CC(C)N12 (stereo not drawn) | > 100 | > 100 µM | > 100 | > 100 µM | > 100 µM | > 100 µM | > 100 | > 100 µM | > 100 | > 100 µM | > 100 µM | > 100 µM | > 100 µM | > 100 µM | > 100 µM | > 100 µM | > 100 µM | > 100 µM | > 100 µM | > 100 µM
15 | CCOC(=O)c1c(CN2CCN(C)CC2)nc2ccc(Cl)cc2c1-c1ccccc1 | 2.03 | 3.98 µM | 13.7 | 26.7 µM | 1.86 µM | 4.66 µM | 1.71 | 3.57 µM | 4.15 | 16.6 µM | 15.2 µM | 29.6 µM | 5.33 µM | 15.4 µM | 8.72 µM | 21 µM | 14.1 µM | 28.5 µM | 3.9 µM | 13 µM
16 | COc1ccc(/C=C/C(=O)c2cc3c(N)c(C(=O)Nc4ccc(OC)cc4)sc3nc2C)cc1 | > 23.4 | > 50 µM | 0.184 | 7.78 µM | 0.385 µM | > 50 µM | 0.158 | 0.609 µM | 0.0644 | > 50 µM | 0.334 µM | > 50 µM | 0.124 µM |  | 0.327 µM | 1.54 µM | 0.231 µM | > 50 µM | 0.155 µM | 0.484 µM
17 | NC(=O)/C(=C/n1cnc(-c2cc(C(F)(F)F)cc(C(F)(F)F)c2)n1)c1cncnc1 | 0.86 | 8.99 µM | 0.625 | 12.2 µM | 0.144 µM | 38.7 µM | 0.124 | 11.5 µM | 0.112 | 11.2 µM | 0.329 µM | 18.2 µM | 0.0706 µM | 0.573 µM | 0.0806 µM | 1.45 µM | 0.552 µM | > 47.1 µM | 0.187 µM | 5.61 µM
18 | NC1=NCN(C2OC(CO)C(O)C2O)C(=O)N1 (stereo not drawn) |  | 1430 µM |  | 1330 µM |  | 788 µM |  | 584 µM |  | 328 µM |  | 1870 µM |  | 218 µM |  | 342 µM |  | 1080 µM |  | 294 µM
